Non-standard residues stand in square brackets, D forms with d. Residues, ends and D or L forms follow the SMILES beside them. Nle = CCCC[C@H](N)C(=O)O
Legend:
[1] = tested on: HaCaT cells; experiment: Cytotoxicity on human keratinocytes, MTT assay; format: cell-based; conditions: 3.12–12.5 μM, 2 h and 24 h
Experimental: The human immortalized keratinocytes HaCaT cells were purchased from AddexBio (San Diego, CA, USA) and cultured in Dulbecco’s modified Eagle’s medium supplemented with 4 mM glutamine (DMEMg), 10% heat-inactivated fetal bovine serum (FBS), and 0.1 mg/mL of penicillin and streptomycin, at 37 °C and 5% CO2, in 25 cm^2 or 75 cm^2 flasks. The in vitro MTT [3-(4,5-dimethylthiazol-2-yl)-2,5-diphenyltetrazolium bromide] assay, based on the reduction of the yellow tetrazolium salt MTT to the purple formazan by viable cells with active metabolism, was used to evaluate the peptide cytotoxicity on HaCaT cells, as previously described in [27]. Specifically, 4 × 10^4 HaCaT cells, suspended in DMEMg supplemented with 2% FBS were plated in a 96-well microtiter plate. After overnight incubation, at 37 °C in a 5% CO2 atmosphere, HaCaT cells were treated for 2 h or 24 h with fresh serum free medium containing the peptide [Nle^1, DLeu^9, DLys^10]TL in a concentration range from 3.12 to 100 μM. […] Formazan crystals were dissolved using acidified isopropanol, and the absorbance of each well was measured at 570 nm using a microplate reader (Infinite M200; Tecan, Salzburg, Austria). The number of viable cells was proportional to the intensity of purple color and was expressed as percentage compared to that of untreated control cells (100%). […]

[2] = Peptide aggregation in LUVs, Thioflavin T; format: physicochemical; conditions: LUVs DOPG/CL (58/42), 0.1 mM lipid
Experimental: Regarding peptide aggregation in LUVs, was monitored using the Thioflavin T as fluorescent probe. LUVs were prepared using the extrusion method. Firstly, the lipid films (final concentration of 0.1 mM), made of DOPG, CL (58/42 ratio in moles) and DOPG/DOPE/CL (63/23/12 ratio in moles), were prepared by dissolving an appropriate amount of lipids in chloroform. The solvent was removed under nitrogen stream, water was added, and the film lipids were freeze-dried. Then, the lipid films were hydrated with 100 mM NaCl, 10 mM Tris-HCl, 25 μM Tht buffer, pH 7.4, and vortexed for 1 h. Then, the lipid suspension was freeze-thawed 6 times and extruded 10 times through polycarbonate membranes with […] diameter pores to obtain LUVs. The aggregation of [Nle^1, DLeu^9, DLys^10]TL was monitored titrating LUVs with different peptide concentrations of 5, 10, 15, 20, 30, 50 μM. Spectra were recorded before and after the addition of peptide using a Varian Cary Eclipse fluorescence spectrometer, exciting the sample at 450 nm (slit width, 10 nm) and recording fluorescence emission at 482 nm (slit width, 5 nm). Aggregation was quantified according to this equation: %A= […] × 100, where Ff indicates the value of fluorescence after peptide addition, F0 the fluorescence in the absence of peptide and Fmax is the fluorescence maximum obtained immediately after peptide addition.

[3] = tested on: IL-6 production in LPS-stimulated J774A.1 cells; experiment: Anti-inflammatory activity, IL-6 ELISA in LPS-stimulated macrophages; format: cell-based, murine; conditions: LPS 10 µg∙mL^−1, peptide 3 μM, 24 h, ELISA of supernatant, three independent experiments
Experimental: Mouse macrophage cell line J774A.1 was cultured as previously described. Cells were seeded in Petri culture dishes (100 mm × 20 mm) at a density of 5 × 10^5 cells per dish and allowed to grow for 24 h. The medium was then replaced, and cells were treated with LPS (10 μg∙mL^−1) in presence or absence of [Nle^1, DLeu^9, DLys^10]TL at the concentration of 3 µM (non-cytotoxic concentration from MTT assay). Following incubation of 24 h, cells were collected with a cell scraper, and after centrifugation at 14,000× g for 10 min at 4 °C, the supernatant was collected and assayed for IL-6 enzyme-linked immunosorbent assay (ELISA) analysis.

[4] = in vitro; conditions: male, human, 90% human serum (from human male AB plasma)
Experimental: The peptide was mixed with 90% of human serum at a final concentration of 200 μM and incubated at 37 °C [27]. Aliquots of the mixture were taken at time intervals of 15, 45, 75, 90 and 120 min. The serum protein was removed by the precipitation with acetonitrile (MeCN) and centrifuged at 13,000 rpm for 15 min. Then, the supernatant was taken and analyzed by ultra-high performance liquid chromatography (UHPLC) using a Phenomenex Kinetex column (4.6 mm × 150 mm, 5 μm, C18) and a linear gradient from 10 to 90% of MeCN (0.1% TFA) in water (0.1% TFA) over 20 min. The percentage of the intact peptide was calculated by integrating the peak area of the UHPLC chromatogram.

CCCC[C@H](N)C(=O)N[C@@H](Cc1ccccc1)C(=O)N[C@H](C(=O)N1CCC[C@H]1C(=O)N[C@@H](Cc1c[nH]c2ccccc12)C(=O)N[C@@H](Cc1ccccc1)C(=O)N[C@@H](CO)C(=O)N[C@@H](CCCCN)C(=O)N[C@@H](Cc1ccccc1)C(=O)N[C@H](CC(C)C)C(=O)N[C@H](CCCCN)C(=O)N[C@@H](CCCNC(=N)N)C(=O)N[C@H](C(=O)N[C@@H](CC(C)C)C(N)=O)[C@@H](C)CC)C(C)C [[Nle^1, DLeu^9, DLys^10]TL] (H-[Nle]FVPWFSKF[dL][dK]RIL-NH2)
effect on human keratinocytes viability [1]: only a slight reduction
aggregation (ThT) ([2]; 5 μM peptide, pH 7.4, 25 μM ThT fluorescence): ~ 22%
aggregation (ThT) ([2]; 30 μM peptide, pH 7.4, ThT fluorescence): completely aggregated
IL-6 production [3]: significant modulation of IL-6 production
remaining at 0.75 h, 200 μM [4]: ~75%
remaining at 2 h, 200 μM [4]: ~50%

— publication PMC9598925, “Synthetic Amphipathic β-Sheet Temporin-Derived Peptide with Dual Antibacterial and Anti-Inflammatory Activities” (Antibiotics, 2022)
